From patent US12240844B2 (Voronoi, Inc., priority 2019, dated 2025)

How the values were obtained:
Type in all cases: biochemical
human GST-CLK1 (129-end) = molecular target: T1, human GST-CLK1 (129-end) (Homo sapiens, UniProt P49759); assay: GST-CLK1 enzyme inhibition, ADP-Glo kinase assay; details: ATP 10 uM
T1 construct: purified human GST-CLK1 (129-end, Signalchem) enzyme; GST; purchased Signalchem
In short: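 GST-CLK1 (129-end, 3 ng) reacted with 10 uM ATP and substrate in 40 mM Tris-HCl pH 7.4, 20 mM MgCl2, 0.5 mg/mL BSA, 50 uM DTT, 1 h at 25° C. ADP-Glo luminescence normalised to solvent control; IC50 from triplicate data.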

LRRK2 (G2019S) = LRRK2 (G2019S) (Homo sapiens, UniProt Q5S007, G2019S); assay: LRRK2 G2019S enzyme inhibition, ADP-Glo kinase assay; parameters: purchased SignalChem L10-12GG
Description: In order to evaluate the inhibitory activity of the compounds according to the present invention on LRRK2, LRRK2 (G2019S), DYRK1, CLK1 and TTK kinases, the following experiment was performed.
Example compounds were reacted with the purified human LRRK2 G2019S (L10-12GG, SignalChem) enzyme to evaluate the enzyme inhibitory ability as follows. The reaction buffer was used as the composition of 40 mM Tris-HCl pH7.4, 20 mM MgCl2, 0.5 mg/ml BSA and 50 μM DTT, and the reaction of all test materials was performed on the reaction buffer. The compound was diluted with 10 mM DMSO stock in 12 steps by a serial dilution method, and the enzyme activity was measured at the final compound concentrations of 50, 10, 2, 0.4, 0.08, 0.016, 0.0032, 0.00064, 0.000128, 0.0000256, 0.00000512 and 0.000001024 μM. In the test, the human LRRK2 G2019S (16 ng) enzyme was reacted with the purified ATP (25 μM) and an enzyme substrate (0.2 μg) at 25° C. for 2 hours, and then the enzyme activity was identified using the in vitro ADP-Glo™ kinase assay (promega). The enzyme activity reaction liquid, an ADP-Glo reaction liquid and an enzyme potency detection solution were reacted in a ratio of 2:2:1, and the degree of inhibition of enzyme activity was measured by Luminescence. The degree of inhibition of enzyme activity according to the treatment concentrations of the respective compounds was calculated based on the fluorescence of the enzyme activity of a solvent control group that was not treated with the compound, where the concentration of each compound to inhibit enzyme activity inhibition by 50% was determined as an IC50 (nM) value and obtained using Prism (Version 5.01, GraphPad) software.
In the table below, the following designations were used for the evaluation of enzyme inhibitory ability.

[1] = molecular target: T2, human GST-DYRK1A (full length) (Homo sapiens, UniProt Q13627); assay: GST-DYRK1A enzyme inhibition, ADP-Glo kinase assay; details: read-out: DYRK1 IC50
T2 construct: purified human GST-DYRK1A (full length, Thermo scientifics) enzyme; GST; purchased Thermo scientifics
In short: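 Full-length human GST-DYRK1A (10 ng) incubated with 10 uM ATP and specific substrate for 1 h at 25° C in 40 mM Tris-HCl pH 7.4, 20 mM MgCl2, 0.5 mg/mL BSA, 50 uM DTT. ADP formation read by ADP-Glo luminescence; IC50 (nM) versus solvent control, triplicate.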

T1 sequence (P49759 129-484 limits assumed): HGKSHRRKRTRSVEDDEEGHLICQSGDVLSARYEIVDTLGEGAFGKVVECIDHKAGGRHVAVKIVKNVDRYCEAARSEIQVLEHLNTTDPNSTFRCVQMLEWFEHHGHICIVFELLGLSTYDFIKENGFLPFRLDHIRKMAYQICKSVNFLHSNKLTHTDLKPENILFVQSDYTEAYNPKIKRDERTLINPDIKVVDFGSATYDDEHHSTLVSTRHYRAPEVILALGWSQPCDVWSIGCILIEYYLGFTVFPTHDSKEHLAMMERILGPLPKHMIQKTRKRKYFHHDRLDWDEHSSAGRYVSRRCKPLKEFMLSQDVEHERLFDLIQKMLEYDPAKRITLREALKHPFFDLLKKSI
LRRK2 (G2019S), sequence (Q5S007 970-2527 G2019S limits assumed): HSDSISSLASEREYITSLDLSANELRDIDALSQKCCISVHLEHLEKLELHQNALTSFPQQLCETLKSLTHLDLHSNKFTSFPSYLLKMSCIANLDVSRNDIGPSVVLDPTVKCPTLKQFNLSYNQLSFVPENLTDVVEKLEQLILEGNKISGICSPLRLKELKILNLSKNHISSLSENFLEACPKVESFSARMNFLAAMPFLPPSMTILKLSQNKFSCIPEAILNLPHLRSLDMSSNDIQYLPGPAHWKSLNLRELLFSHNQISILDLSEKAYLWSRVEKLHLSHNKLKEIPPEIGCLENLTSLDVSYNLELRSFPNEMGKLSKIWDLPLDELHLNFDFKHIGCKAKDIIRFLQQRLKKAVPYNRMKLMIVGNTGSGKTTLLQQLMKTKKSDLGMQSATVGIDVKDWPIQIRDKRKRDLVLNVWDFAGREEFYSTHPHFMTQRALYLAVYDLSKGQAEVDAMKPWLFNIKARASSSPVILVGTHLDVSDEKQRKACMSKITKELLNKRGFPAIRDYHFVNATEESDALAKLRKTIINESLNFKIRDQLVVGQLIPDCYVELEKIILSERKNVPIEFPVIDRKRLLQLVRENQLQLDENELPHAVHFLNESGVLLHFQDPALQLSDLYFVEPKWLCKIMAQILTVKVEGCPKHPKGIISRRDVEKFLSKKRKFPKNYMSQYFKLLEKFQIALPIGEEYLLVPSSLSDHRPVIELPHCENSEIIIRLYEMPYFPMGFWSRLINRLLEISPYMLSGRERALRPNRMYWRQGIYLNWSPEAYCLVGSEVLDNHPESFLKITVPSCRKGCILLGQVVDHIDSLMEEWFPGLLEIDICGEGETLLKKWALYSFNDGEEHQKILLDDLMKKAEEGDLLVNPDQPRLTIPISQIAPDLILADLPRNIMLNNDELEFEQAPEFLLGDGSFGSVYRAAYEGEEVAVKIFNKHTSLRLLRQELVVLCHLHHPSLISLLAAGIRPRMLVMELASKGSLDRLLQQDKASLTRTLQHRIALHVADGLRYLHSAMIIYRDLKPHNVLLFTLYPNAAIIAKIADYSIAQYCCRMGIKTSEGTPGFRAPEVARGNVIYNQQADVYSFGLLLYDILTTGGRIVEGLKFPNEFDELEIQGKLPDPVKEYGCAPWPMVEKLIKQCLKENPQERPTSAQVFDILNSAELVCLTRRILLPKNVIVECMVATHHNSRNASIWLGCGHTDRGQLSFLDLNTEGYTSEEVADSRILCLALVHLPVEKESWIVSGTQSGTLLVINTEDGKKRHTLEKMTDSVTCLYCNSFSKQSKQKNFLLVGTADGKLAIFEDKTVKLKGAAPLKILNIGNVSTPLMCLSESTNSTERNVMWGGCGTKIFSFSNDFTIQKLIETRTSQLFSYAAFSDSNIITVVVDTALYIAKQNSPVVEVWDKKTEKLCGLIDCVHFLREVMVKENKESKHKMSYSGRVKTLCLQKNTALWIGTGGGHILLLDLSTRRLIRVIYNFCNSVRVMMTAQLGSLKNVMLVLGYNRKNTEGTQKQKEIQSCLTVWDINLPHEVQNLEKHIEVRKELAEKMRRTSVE

| Compound | IC50 (human GST-CLK1 (129-end)) | IC50 (LRRK2 (G2019S)) | IC50 [1] |
| --- | --- | --- | --- |
| CNc1cc(Nc2ccc(S(C)(=O)=O)cc2OC)nc2[nH]cc(Cl)c12 [Example 80, 3-chloro-N^6-(2-methoxy-4-(methylsulfonyl)phenyl)-N^4-methyl-1H-pyrrolo[2,3-b]pyridine-4,6-diamine] | 301 to 1000 nM | < 100 nM | 301 to 1000 nM |
| CCNc1cc(Nc2ccc(S(C)(=O)=O)cc2OC)nc2[nH]cc(Cl)c12 [Example 81, 3-chloro-N^4-ethyl-N^6-(2-methoxy-4-(methylsulfonyl)phenyl)-1H-pyrrolo[2,3-b]pyridine-4,6-diamine] | 301 to 1000 nM | 301 to 1000 nM | 301 to 1000 nM |
| CCCNc1cc(Nc2ccc(S(C)(=O)=O)cc2OC)nc2[nH]cc(Cl)c12 [Example 82, 3-chloro-N^6-(2-methoxy-4-(methylsulfonyl)phenyl)-N^4-propyl-1H-pyrrolo[2,3-b]pyridine-4,6-diamine] | 301 to 1000 nM | 301 to 1000 nM | 301 to 1000 nM |
| COc1cc(S(C)(=O)=O)ccc1Nc1cc(NC(C)C)c2c(Cl)c[nH]c2n1 [Example 83, 3-chloro-N^4-isopropyl-N^6-(2-methoxy-4-(methylsulfonyl)phenyl)-1H-pyrrolo[2,3-b]pyridine-4,6-diamine] | 301 to 1000 nM | 301 to 1000 nM | 301 to 1000 nM |
| COc1cc(S(C)(=O)=O)ccc1Nc1cc(NC2CC2)c2c(Cl)c[nH]c2n1 [Example 84, 3-chloro-N^4-cyclopropyl-N^6-(2-methoxy-4-(methylsulfonyl)phenyl)-1H-pyrrolo[2,3-b]pyridine-4,6-diamine] | 301 to 1000 nM | 301 to 1000 nM | 301 to 1000 nM |
| COc1cc(S(C)(=O)=O)ccc1Nc1cc(NCCS(C)(=O)=O)c2c(Cl)c[nH]c2n1 [Example 88, 3-chloro-N^6-(2-methoxy-4-(methylsulfonyl)phenyl)-N^4-(2-(methylsulfonyl)ethyl)-1H-pyrrolo[2,3-b]pyridine-4,6-diamine] | 301 to 1000 nM | 301 to 1000 nM | 301 to 1000 nM |
| COc1cc(S(=O)(=O)N2CCC(N3CCOCC3)CC2)ccc1Nc1cc(NC2CCCC2)c2c(C#N)c[nH]c2n1 [Example 136, 4-(cyclopentylamino)-6-((2-methoxy-4-((4-morpholinopiperidin-1-yl)sulfonyl)phenyl)amino)-1H-pyrrolo[2,3-b]pyridine-3-carbonitrile] | 301 to 1000 nM | < 100 nM | 301 to 1000 nM |
| CCNc1cc(Nc2ccc(C(=O)N3OCC[C@@H]3c3cc(F)cc(F)c3)c3c2OCC3)nc2[nH]cc(C(F)(F)F)c12 [Example 245, (R)-(3-(3,5-difluorophenyl)isoxazolidin-2-yl)(7-((4-(ethylamino)-3-(trifluoromethyl)-1H-pyrrolo[2,3-b]pyridin-6-yl)amino)-2,3-dihydrobenzofuran-4-yl)methanone] | 301 to 1000 nM | 301 to 1000 nM | 301 to 1000 nM |
| CCNc1cc(Nc2ccc(C(=O)N3OCC[C@H]3c3cc(F)cc(F)c3)c3c2OCC3)nc2[nH]cc(C(F)(F)F)c12 [Example 246, (S)-(3-(3,5-difluorophenyl)isoxazolidin-2-yl)(7-((4-(ethylamino)-3-(trifluoromethyl)-1H-pyrrolo[2,3-b]pyridin-6-yl)amino)-2,3-dihydrobenzofuran-4-yl)methanone] | 301 to 1000 nM | 301 to 1000 nM | 301 to 1000 nM |
| CCNc1cc(Nc2ccc(C(=O)N3CCC4(CC3)CC4)c3c2OCC3)nc2[nH]cc(C(F)(F)F)c12 [Example 256, (7-((4-(ethylamino)-3-(trifluoromethyl)-1H-pyrrolo[2,3-b]pyridin-6-yl)amino)-2,3-dihydrobenzofuran-4-yl)(6-azaspiro[2.5]octan-6-yl)methanone] | 101 to 300 nM | 301 to 1000 nM | 301 to 1000 nM |
| CCNc1cc(Nc2ccc(C(=O)N3C[C@@H](C)O[C@@H](C)C3)c3c2OCC3)nc2[nH]cc(C(F)(F)F)c12 [Example 258, ((2S,6R)-2,6-dimethylmorpholino) (7-((4-(ethylamino)-3-(trifluoromethyl)-1H-pyrrolo[2,3-b]pyridin-6-yl)amino)-2,3-dihydrobenzofuran-4-yl)methanone] | 101 to 300 nM | 301 to 1000 nM | < 100 nM |
| C=CCNc1cc(Nc2ccc(C(=O)N3CC[C@H](N4CCOCC4)C3)c3c2OCC3)nc2[nH]cc(C(F)(F)F)c12 [Example 262, (S)-(7-((4-(allylamino)-3-(trifluoromethyl)-1H-pyrrolo[2,3-b]pyridin-6-yl)amino)-2,3-dihydrobenzofuran-4-yl)(3-morpholinopyrrolidin-1-yl)methanone] | < 100 nM | < 100 nM | 101 to 300 nM |

Results, then the molecule that gave them:

| IC50 (human GST-CLK1 (129-end)) | IC50 (LRRK2 (G2019S)) | IC50 [1] | Compound |
| --- | --- | --- | --- |
| < 100 nM | < 100 nM | 101 to 300 nM | CCNc1cc(Nc2ccc(C(=O)N3CCN(C4CCCC4)CC3)c3c2OCC3)nc2[nH]cc(C(F)(F)F)c12 [Example 251, (4-cyclopentylpipe razin-1-yl)(7-((4-(ethylamino)-3-(trifluoromethyl)-1H-pyrrolo[2,3-b]pyridin-6-yl)amino)-2,3-dihydrobenzofuran-4-yl)methanone] |
| < 100 nM | < 100 nM | < 100 nM | C=CCN1CCN(C(=O)c2ccc(Nc3cc(NCC)c4c(C(F)(F)F)c[nH]c4n3)c3c2CCO3)CC1 [Example 252, (4-allylpiperazin-1-yl)(7-((4-(ethylamino)-3-(trifluoromethyl)-1H-pyrrolo[2,3-b]pyridin-6-yl)amino)-2,3-dihydrobenzofuran-4-yl)methanone] |
| < 100 nM | < 100 nM | < 100 nM | CCNc1cc(Nc2ccc(C(=O)N3CCN(C(C)C)CC3)c3c2OCC3)nc2[nH]cc(C(F)(F)F)c12 [Example 254, (7-((4-(ethylamino)-3-(trifluoromethyl)-1H-pyrrolo[2,3-b]pyridin-6-yl)amino)-2,3-dihydrobenzofuran-4-yl)(4-isopropylpiperazin-1-yl)methanone] |
| < 100 nM | < 100 nM | < 100 nM | CCNc1cc(Nc2ccc(C(=O)N3CCO[C@@H](C)C3)c3c2OCC3)nc2[nH]cc(C(F)(F)F)c12 [Example 259, (S)-(7-((4-(ethylamino)-3-(trifluoromethyl)-1H-pyrrolo[2,3-b]pyridin-6-yl)amino)-2,3-dihydrobenzofuran-4-yl)(2-methylmorpholino) methanone] |
| < 100 nM | < 100 nM | < 100 nM | CCNc1cc(Nc2ccc(C(=O)N3CCO[C@H](C)C3)c3c2OCC3)nc2[nH]cc(C(F)(F)F)c12 [Example 260, (R)-(7-((4-(ethylamino)-3-(trifluoromethyl)-1H-pyrrolo[2,3-b]pyridin-6-yl)amino)-2,3-dihydrobenzofuran-4-yl)(2-methylmorpholino) methanone] |
| < 100 nM | < 100 nM | 101 to 300 nM | C=CCNc1cc(Nc2ccc(C(=O)N3CC[C@@H](N4CCOCC4)C3)c3c2OCC3)nc2[nH]cc(C(F)(F)F)c12 [Example 261, (R)-(7-((4-(allylamino)-3-(trifluoromethyl)-1H-pyrrolo[2,3-b]pyridin-6-yl)amino)-2,3-dihydrobenzofuran-4-yl)(3-morpholinopyrrolidin-1-yl)methanone] |
